Experimental findings from patent publication US5238938A, “Indole derivatives” (Otsuka Pharmaceutical Co., Ltd., priority 1989, dated 1993) are described below.

The first test deals with releasing of lysosome from the neutrocytes of rat. Kind of test: Inhibitory effect against the releasing of lysosome from the neutrocytes of rat. Format: cell-based. The settings on record: 0.25 h; rat neutrocytes 5×10^5 cells/ml; FMLP 10^-6 M + cytochalasin B 5 μg/ml; 15 minutes; OD550; read-out: 50% inhibitory concentration (IC50), releasing of lysosome. The procedure:
Inhibitory effect against the releasing of lysosome from the neutrocytes of rat
The neutrocytes of rat were samples from the abdominal cavity of the reat 16 hours after the administration of 10 ml of 1%-casein solution (physiological saline solution).
Reaction of the releasing of lysosome from the neutrocytes of rat was determined by means of the method described in an article by T. Matsumoto, K. Takeshige and S. Minakami: Biochemical and Biophysical Research Communications, Vol. 88, No. 3, pp. 974-979, (1979).
The neutrocytes being sampled were added to Hank's soluiton so as to make the concentraiton thereof as 5×10^5 cells/ml, and the test compound of indole derivative of the present invention was added thereto to make the test group sample. On the other hand, water was added in place of the indole derivative of the present invention to make the control group sample. Each of the test group sample and the control group sample was subjected to pre-incubation at 37° C. for 1 minute.
As to the stimulating agents, 10^-6 M of FMLP (formylmethionyl leucyl phenylalanine) and 5 μg/ml of cytochalasin B were added to the solution. Thus, obtained mixture of the solution was reacted by incubating for 15 minutes. After the incubation, the mixture of the solution was subjected to centrifugation at 2,000 rpm for 10 minutes. The supernatant (0.2 ml) was admixed with 0.5 ml of 0.1M-acetic acid buffer solution (pH 4.5) in which 0.2 mM of phenolphthalein glucuronic acid was dissolved. Then the resulting mixture of the solutions was reacted at 37° C. for 5 hours by incubation. After the reaction, 1N-NaOH solution was added to the reaction mixture so as to make the pH thereof to pH 8-9, and the optical absorbance of both test group samples and control group samples were determined at 550 nm (OD550).
The 50% inhibitory concentration (IC50) values were obtained by calculating as the ratio of OD550 of the test group samples to that of the control group samples.
Regarding `CN1C(=O)C(c2ccccc2)NC(=O)/C1=C/c1c[nH]c2ccccc12` (stereo not drawn) [Compound A-4a, (Z)-6-(indol-3-yl)methylidene-1-methyl-3-phenylpiperazine-2,5-dione], the IC50 came out at 35 µg/mL.

Regarding `CC(C)C[C@@H]1NC(=O)/C(=C/c2c[nH]c3ccccc23)N(C)C1=O` [Compound A-4b, (3S,Z)-6-(Indol-3-yl)methylidene-3-isobutyl-1-methylpiperazine-2,5-dione], the IC50 is 30 µg/mL. The same measure, in the same setting: the same measure for `COC1=N[C@@H](CC(C)C)C(=O)N(C)/C1=C\c1c[nH]c2ccccc12` [Compound A-5b, (3S,Z)-6-(Indol-3-yl)methylidene-3-isobutyl-5-methoxy-1-methyl-1,2,3,6-tetrahydropyrazin-2-one]: 25 µg/mL; for `COc1nc(-c2ccccc2)c(=O)n(C)c1Cc1c[nH]c2ccccc12` [Compound A-6a, 6-(indol-3-yl)methyl-5-methoxy-1-methyl-3-phenyl-1,2-dihydropyrazin-2-one]: 30 µg/mL; for `COc1nc(CC(C)C)c(=O)n(C)c1Cc1c[nH]c2ccccc12` [Compound A-6b, 6-(Indol-3-yl)methyl-3-isobutyl-5-methoxy-1-methyl-1,2-dihydropyrazin-2-one]: 30 µg/mL. Same read-out and setting: to `COc1nc(CC(C)C)c(OC)nc1Cc1c[nH]c2ccccc12` [Compound A-19, 3-(Indol-3-yl)methyl-6-isobutyl-2,5-dimethoxypyrazine] belongs 25 µg/mL; to `COc1nc(CC(C)C)c(OC(C)=O)nc1Cc1c[nH]c2ccccc12` [Compound A-20, 2-Acetoxy-6-(indol-3-yl)methyl-3-isobutyl-5-methoxypyrazine], 20 µg/mL. On the same count and under the same terms, the same measure for `CCOc1nc(CC(C)C)c(OCC)nc1Cc1c[nH]c2ccccc12` [Compound A-23, 3-(Indol-3-yl)methyl-2,5-diethoxy-6-isobutylpyrazine]: 50 µg/mL.

With `CC(C)Cc1nc(Cl)c(Cc2c[nH]c3ccccc23)nc1Cl` [Compound A-26, 3-(Indol-3-yl)methyl-2,5-dichloro-6-isobutylpyrazine], the IC50 came out at 10 µg/mL. On the same count and under the same terms, the same measure for `CC(C)Cc1cnc(Cc2c[nH]c3ccccc23)cn1` [Compound A-27, 2-(indol-3-yl)methyl-5-isobutylpyrazine]: 25 µg/mL; for `O=C1CN(O)C(=O)[C@H](Cc2c[nH]c3ccccc23)N1` [Compound A-29c, (3S)-1-Hydroxy-3-(indol-3-yl)methylpiperazine-2,5-dione]: 50 µg/mL; for `CC(C)/C=c1\[nH]c(=O)/c(=C/c2c[nH]c3ccccc23)[nH]c1=O` [Compound A-34, (Z,Z)-3-(indol-3-yl)methylidene-6-isobutylidenepiperazine-2,5-dione]: 50 µg/mL. In the case of `CC(C)C[C@H]1C(=O)N[C@@H](Cc2c[nH]c3ccccc23)C(=O)N1OCc1ccccc1` [Compound A-35d, (3S,6S)-1-Benzyloxy-3-(indol-3-yl)methyl-6-isobutyl-piperazine-2,5-dione], the IC50 came to 50 µg/mL. Still for that read-out and setting: the same measure for `COn1c(CC(C)C)c(Cl)nc(Cc2c[nH]c3ccccc23)c1=O` [Compound A-45, 5-chloro-3-(indol-3-yl)methyl-6-isobutyl-1-methoxy-1,2-dihydropyrazin-2-one]: 20 µg/mL; for `COC(=O)n1cc(Cc2nc(Cl)c(CC(C)C)[n+]([O-])c2OC)c2ccccc21` [Compound A-48, 3-Chloro-2-isobutyl-5-[(1-methoxycarbonyl)indol-3-yl]methyl-6-methoxypyrazineyl-oxide]: 50 µg/mL; for `COn1c(C)c(C)nc(Cc2c[nH]c3ccccc23)c1=O` [Compound A-53, 3-(Indol-3-yl)methyl-1-methoxy-5,6-dimethyl-1,2-dihydropyrazin-2-one]: 43 µg/mL. The same measure, in the same setting: to `COc1c(Cc2c[nH]c3ccccc23)n(C)c(=O)c(CC(C)C)[n+]1[O-]` [Compound A-59, 6-(indol-3-yl)methyl-3-isobutyl-5-methoxy-1-methyl-1,2-dihydropyrazin-2-one 4-oxide] belongs 20 µg/mL. The same measure, in the same setting: the same measure for `COc1nc(Cc2c[nH]c3ccccc23)c(OC)[n+]([O-])c1CC(C)C` [Compound A-60, 3-(indol-3-yl)methyl-6-isobutyl-2,5-dimethoxypyrazine 1-oxide]: 20 µg/mL. With `CC(C)Cc1c(=O)[nH]c(Cc2c[nH]c3ccccc23)c[n+]1[O-]` [Compound A-84, 6-(indol-3-yl)methyl-3-isobutyl-1,2-dihydropyrazin-2-one 4-oxide], the IC50 was determined as 50 µg/mL. Still for that read-out and setting: the same measure for `COc1c(Cc2c(-c3ccccc3)[nH]c3ccccc23)[nH]c(=O)c(CC(C)C)[n+]1[O-]` [Compound E-34g, 3-Isobutyl-5-methoxy-6-[(2-phenyl)indol-3-yl]methyl-1,2-dihydropyrazin-2-one 4-oxide]: 8 µg/mL; for `COc1c(Cn2ccc3cc(C#N)ccc32)[nH]c(=O)c(CC(C)C)[n+]1[O-]` [Compound E-36o, 6-[(5-cyano)indol-1-yl]methyl-3-isobutyl-5-methoxy-1,2-dihydropyrazin-2-one4-oxide]: 12 µg/mL.

Regarding `COc1c(CC2C(=O)Nc3ccccc32)[nH]c(=O)c(CC(C)C)[n+]1[O-]` (stereo not drawn) [Compound E-39, 2-Isobutyl-5-methxoy-6-(oxindol-3-yl)methyl-1,2-dihydropyrazin-2-one 4-oxide], the IC50 was determined as 50 µg/mL. The same measure, in the same setting: the same measure for `COc1c(Cc2c[nH]c3ccccc23)nc(OC(C)=O)c(CC(C)C)[n+]1[O-]` [Compound E-65, 3-Acetoxy-5-(indol-3-yl)methyl-2-isobutyl-6-methoxypyrazine 1-oxide]: 9 µg/mL.

The test is the same for the next values; noted with them: rat neutrocytes 5×10^5 cells/ml; FMLP 10^-6 M + cytochalasin B 5 μg/ml; 15 minutes; OD550.
Consider “6-(indol-3-yl)methyl-2-isobutyl-5-methyl-1,2-dihydropyrazin-3-one 4-oxide [Compound A-82a]”, for which the “50% inhibitory concentration (IC50), releasing of lysosome” value is 20 µg/mL.
